This note sets out measurements from ChEMBL document CHEMBL3243944, “Synthesis of spiro[isobenzofuran-1(3H),4'-piperidines] as potential central nervous system agents. 2. Compounds containing a heteroatom attached to nitrogen” (1977).

Structures are written as SMILES.

The test deals with Mus musculus. In words: Antitetrabenazine activity in ip dosed CD1 mouse assessed as inhibition of tetrabenazine-induced ptosis challenged with tetrabenazine after 30 mins later and after another 30 mins of drug treatment. The test is classed as functional. The settings on record: 0.5 h.

As usually defined, the ED50 is the dose at which the effect has come halfway, by size or by number of responders. Take `NN1CCC2(CC1)OC(c1ccccc1)c1ccccc12` (stereo unspecified): the ED50 worked out at 6.8 mg/kg.
To `O=NN1CCC2(CC1)OC(c1ccccc1)c1ccccc12` (stereo unspecified) belongs greater than 25 mg/kg.
To `CC(C)NN1CCC2(CC1)OC(c1ccccc1)c1ccccc12` (stereo unspecified) belongs greater than 25 mg/kg.
As for `ON1CCC2(CC1)OC(c1ccccc1)c1ccccc12` (stereo unspecified), the ED50 came to 1.4 mg/kg.
Regarding `O=C(ON1CCC2(CC1)OC(c1ccccc1)c1ccccc12)c1ccccc1` (stereo unspecified), the 50% effective dose (ED50) was greater than 25 mg/kg.
As for `COc1ccc(C2OC3(CCN(O)CC3)c3ccccc32)cc1` (stereo unspecified), the ED50 was 3.5 mg/kg.
For `COc1ccc2c(c1)C1(CCN(O)CC1)OC2c1ccccc1` (stereo unspecified), the ED50 came out at 4.7 mg/kg.
Regarding `ON1CCC2(CC1)OC(c1ccc(F)cc1)c1ccccc12` (stereo unspecified), the ED50 amounted to 4 mg/kg.
As to `c1ccc(C2OC3(CCNCC3)c3ccccc32)cc1` (stereo unspecified), the ED50 was found to be 0.5 mg/kg.
In the case of `CNCCCN1c2ccccc2CCc2ccccc21` [DESIPRAMINE] it was 0.8 mg/kg.
Turning to `CN(C)CCCN1c2ccccc2CCc2ccccc21` [IMIPRAMINE], the ED50 amounted to 1.3 mg/kg.
